Read-outs that look alike come from different tables or passages of the source. *1 amine or outer side, *2 acyl side, *3 side chain or, on linkers, in order; H or OH if unused. Where a SMILES comes first, the peptide text is derived from it. Side-chain parts run from the residue outwards. [ ]: non-standard residue; d: D form. The star is where a group is joined. C20 diacid = O=C(O)CCCCCCCCCCCCCCCCCCC(=O)*; γGlu = O=C(O)[C@H](CCC(=O)[*:2])N[*:1]; AEEA = NCCOCCOCC(=O)O; Aib = CC(C)(N)C(=O)O

The results in this text go back to patent US10093713B2, “GIP-GLP-1 dual agonist compounds and methods” (priority 2013, dated 2018).

The target of one assay is T1, human GIP R (Homo sapiens, UniProt P48546).
T1 construct: expressed in transfected cells
T1 sequence (P48546 22-466): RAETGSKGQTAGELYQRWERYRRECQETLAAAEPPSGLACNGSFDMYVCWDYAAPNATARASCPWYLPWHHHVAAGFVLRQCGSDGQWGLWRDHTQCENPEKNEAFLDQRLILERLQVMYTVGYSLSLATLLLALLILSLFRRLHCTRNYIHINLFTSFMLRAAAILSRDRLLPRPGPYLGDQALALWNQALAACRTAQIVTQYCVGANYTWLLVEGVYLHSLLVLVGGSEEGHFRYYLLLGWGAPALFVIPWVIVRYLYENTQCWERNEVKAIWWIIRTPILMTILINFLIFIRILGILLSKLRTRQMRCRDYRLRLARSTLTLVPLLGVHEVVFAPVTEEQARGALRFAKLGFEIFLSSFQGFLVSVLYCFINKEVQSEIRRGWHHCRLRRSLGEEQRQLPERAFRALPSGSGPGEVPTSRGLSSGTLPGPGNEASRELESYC
The experiment in a line: Human GIP receptor (GIP R) activity assay, cAMP induction (AlphaScreen) in HEK293 cells. The format is cell-based. The following applies: read-out: hGIP-R cAMP EC50 average value. In short, it runs like this:
(§1)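 Stable HEK293 clones expressing human GIP R or GLP-1 R, seeded 1 day before; cells washed in Tyrode's buffer (10 mM HEPES, pH 7.4), stimulated, then lysed. cAMP measured by AlphaScreen bead competition (1 h, room temperature, dark). EC50 = concentration giving half-maximal cAMP elevation, from curves of absolute cAMP (nM) vs log concentration.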

For the next assay, the target named is T2, human GLP-1 R (Homo sapiens, UniProt P43220).
T2 construct: expressed in transfected cells
The experiment in a line: Human GLP-1 receptor (GLP-1 R) activity assay, cAMP induction (AlphaScreen) in HEK293 cells. In kind it is cell-based. In short, it runs like this:
as §1

[1] abbreviates: Table 2, HEK293 cells expressing human GIP R.
Where [2] appears, read: Table 3, most comprehensive data.
Setting [3] is: Table 2, HEK293 cells expressing human GLP-1 R, read-out: hGLP1-R cAMP EC50 average value.
Where [4] appears, read: Table 3, most comprehensive data, read-out: hGLP-1-R cAMP EC50 average value.

T2 sequence (P43220 24-463): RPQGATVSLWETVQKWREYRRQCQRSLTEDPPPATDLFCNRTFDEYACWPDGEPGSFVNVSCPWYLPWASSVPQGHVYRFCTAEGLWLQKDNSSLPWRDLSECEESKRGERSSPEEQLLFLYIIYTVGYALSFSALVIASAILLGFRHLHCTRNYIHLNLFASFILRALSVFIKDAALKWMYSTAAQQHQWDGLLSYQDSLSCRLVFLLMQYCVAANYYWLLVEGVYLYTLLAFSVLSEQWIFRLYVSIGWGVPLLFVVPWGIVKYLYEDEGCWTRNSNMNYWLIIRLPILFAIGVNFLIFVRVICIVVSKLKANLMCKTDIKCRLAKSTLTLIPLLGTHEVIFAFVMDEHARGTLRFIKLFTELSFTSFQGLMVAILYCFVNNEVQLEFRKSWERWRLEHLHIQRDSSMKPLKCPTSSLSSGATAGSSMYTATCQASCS

Regarding `CC[C@H](C)[C@H](NC(=O)[C@H](CO)NC(=O)[C@H](Cc1ccc(O)cc1)NC(=O)[C@H](CC(=O)O)NC(=O)[C@H](CO)NC(=O)[C@@H](NC(=O)[C@H](Cc1ccccc1)NC(=O)[C@@H](NC(=O)CNC(=O)[C@H](CCC(=O)O)NC(=O)C(C)(C)NC(=O)[C@@H](N)Cc1ccc(O)cc1)[C@@H](C)O)[C@@H](C)O)C(=O)N[C@@H](C)C(=O)N[C@@H](CC(C)C)C(=O)N[C@@H](CCC(=O)O)C(=O)N[C@@H](CCCCN)C(=O)N[C@@H](CCCCNC(=O)COCCOCCNC(=O)COCCOCCNC(=O)CC[C@H](NC(=O)CCCCCCCCCCCCCCCCCCC(=O)O)C(=O)O)C(=O)N[C@@H](C)C(=O)N[C@@H](CCC(N)=O)C(=O)N[C@@H](CCCNC(=N)N)C(=O)N[C@@H](C)C(=O)N[C@@H](Cc1ccccc1)C(=O)N[C@H](C(=O)N[C@@H](CCC(=O)O)C(=O)N[C@@H](Cc1c[nH]c2ccccc12)C(=O)N[C@@H](CC(C)C)C(=O)N[C@@H](CC(C)C)C(=O)N[C@@H](C)C(=O)N[C@@H](CCC(N)=O)C(=O)N[C@@H](CCCCN)C(N)=O)C(C)C` [Compound 25] (H-Y[Aib]EGTFTSDYSIALEKK([AEEA-AEEA-γGlu-C20 diacid])AQRAFVEWLLAQK-NH2), the EC50 at human GIP R (setting [1]) turned out to be 0.009 nM; on human GIP R (setting [2]), 0.009 nM; at human GLP-1 R (setting [3]), 0.011 nM.
For the molecule `CC[C@H](C)[C@H](NC(=O)[C@H](CO)NC(=O)[C@H](CC(C)C)NC(=O)[C@H](CC(=O)O)NC(=O)[C@H](CO)NC(=O)[C@@H](NC(=O)[C@H](Cc1ccccc1)NC(=O)[C@@H](NC(=O)CNC(=O)[C@H](CCC(=O)O)NC(=O)C(C)(C)NC(=O)[C@@H](N)Cc1ccc(O)cc1)[C@@H](C)O)[C@@H](C)O)C(=O)N[C@@H](C)C(=O)N[C@@H](CC(C)C)C(=O)N[C@@H](CCC(=O)O)C(=O)N[C@@H](CCCCN)C(=O)N[C@@H](CCCCNC(=O)COCCOCCNC(=O)COCCOCCNC(=O)CC[C@H](NC(=O)CCCCCCCCCCCCCCCCCCC(=O)O)C(=O)O)C(=O)N[C@@H](C)C(=O)N[C@@H](CCC(N)=O)C(=O)N[C@@H](CCCNC(=N)N)C(=O)N[C@@H](C)C(=O)N[C@@H](Cc1ccccc1)C(=O)N[C@H](C(=O)N[C@@H](CCC(=O)O)C(=O)N[C@@H](Cc1c[nH]c2ccccc12)C(=O)N[C@@H](CC(C)C)C(=O)N[C@@H](CCC(=O)O)C(=O)N[C@@H](C)C(=O)N[C@@H](CCC(N)=O)C(=O)N[C@@H](CCCCN)C(N)=O)C(C)C` [Compound 26] (H-Y[Aib]EGTFTSDLSIALEKK([AEEA-AEEA-γGlu-C20 diacid])AQRAFVEWLEAQK-NH2), the figures for the EC50 at human GIP R (setting [2]) and at human GLP-1 R (setting [3]) were 0.58 nM and 0.014 nM, respectively.
Regarding `CC[C@H](C)[C@H](NC(=O)[C@H](CO)NC(=O)[C@H](Cc1ccc(O)cc1)NC(=O)[C@H](CC(=O)O)NC(=O)[C@H](CO)NC(=O)[C@@H](NC(=O)[C@H](Cc1ccccc1)NC(=O)[C@@H](NC(=O)CNC(=O)[C@H](CCC(=O)O)NC(=O)C(C)(C)NC(=O)[C@@H](N)Cc1ccc(O)cc1)[C@@H](C)O)[C@@H](C)O)C(=O)N[C@@H](Cc1ccc(O)cc1)C(=O)N[C@@H](CC(C)C)C(=O)N[C@@H](CCC(=O)O)C(=O)N[C@@H](CCCCN)C(=O)N[C@@H](CCCCNC(=O)COCCOCCNC(=O)COCCOCCNC(=O)CC[C@H](NC(=O)CCCCCCCCCCCCCCCCCCC(=O)O)C(=O)O)C(=O)N[C@@H](C)C(=O)N[C@@H](CCC(N)=O)C(=O)N[C@@H](CCCNC(=N)N)C(=O)N[C@@H](C)C(=O)N[C@@H](Cc1ccccc1)C(=O)N[C@H](C(=O)N[C@@H](CCC(=O)O)C(=O)N[C@@H](Cc1c[nH]c2ccccc12)C(=O)N[C@@H](CC(C)C)C(=O)N[C@@H](CC(C)C)C(=O)N[C@@H](CCCNC(=N)N)C(=O)N[C@@H](C)C(N)=O)C(C)C` [Compound 29] (H-Y[Aib]EGTFTSDYSIYLEKK([AEEA-AEEA-γGlu-C20 diacid])AQRAFVEWLLRA-NH2), the EC50 on human GIP R (setting [1]) was found to be 0.025 nM; on human GLP-1 R (setting [3]), 0.033 nM.
On to `CC[C@H](C)[C@H](NC(=O)[C@H](CO)NC(=O)[C@H](CC(C)C)NC(=O)[C@H](CC(=O)O)NC(=O)[C@H](CO)NC(=O)[C@@H](NC(=O)[C@H](Cc1ccccc1)NC(=O)[C@@H](NC(=O)CNC(=O)[C@H](CCC(=O)O)NC(=O)C(C)(C)NC(=O)[C@@H](N)Cc1ccc(O)cc1)[C@@H](C)O)[C@@H](C)O)C(=O)N[C@@H](C)C(=O)N[C@@H](CC(C)C)C(=O)N[C@@H](CCC(=O)O)C(=O)N[C@@H](CCCCN)C(=O)N[C@@H](CCCCNC(=O)COCCOCCNC(=O)COCCOCCNC(=O)CC[C@H](NC(=O)CCCCCCCCCCCCCCCCCCC(=O)O)C(=O)O)C(=O)N[C@@H](C)C(=O)N[C@@H](CCC(N)=O)C(=O)N[C@@H](CCCNC(=N)N)C(=O)N[C@@H](C)C(=O)N[C@@H](Cc1ccccc1)C(=O)N[C@H](C(=O)N[C@@H](CCC(=O)O)C(=O)N[C@@H](Cc1c[nH]c2ccccc12)C(=O)N[C@@H](CC(C)C)C(=O)N[C@@H](CC(C)C)C(=O)N[C@@H](C)C(=O)N[C@@H](CCC(N)=O)C(=O)NCC(=O)N1CCC[C@H]1C(=O)N[C@@H](CO)C(=O)N[C@@H](CO)C(=O)NCC(=O)N[C@@H](C)C(=O)N1CCC[C@H]1C(=O)N1CCC[C@H]1C(=O)N1CCC[C@H]1C(=O)N[C@@H](CO)C(N)=O)C(C)C` [Compound 33] (H-Y[Aib]EGTFTSDLSIALEKK([AEEA-AEEA-γGlu-C20 diacid])AQRAFVEWLLAQGPSSGAPPPS-NH2), for which the EC50 at human GIP R (setting [1]) came out at 0.009 nM; at human GIP R (setting [2]), 0.009 nM; on human GLP-1 R (setting [3]), 0.014 nM.
In the case of `CC[C@H](C)[C@H](NC(=O)[C@H](CO)NC(=O)[C@H](Cc1ccc(O)cc1)NC(=O)[C@H](CC(=O)O)NC(=O)[C@H](CO)NC(=O)[C@@H](NC(=O)[C@H](Cc1ccccc1)NC(=O)[C@@H](NC(=O)CNC(=O)[C@H](CCC(=O)O)NC(=O)C(C)(C)NC(=O)[C@@H](N)Cc1ccc(O)cc1)[C@@H](C)O)[C@@H](C)O)C(=O)N[C@@H](Cc1ccc(O)cc1)C(=O)N[C@@H](CC(C)C)C(=O)N[C@@H](CC(=O)O)C(=O)N[C@@H](CCCCN)C(=O)N[C@@H](CCCCNC(=O)COCCOCCNC(=O)COCCOCCNC(=O)CCCCCCCCCCCCCCCCCCC(=O)O)C(=O)N[C@@H](C)C(=O)N[C@@H](CCC(N)=O)C(=O)N[C@@H](CCCNC(=N)N)C(=O)N[C@@H](C)C(=O)N[C@@H](Cc1ccccc1)C(=O)N[C@H](C(=O)N[C@@H](CCC(=O)O)C(=O)N[C@@H](Cc1c[nH]c2ccccc12)C(=O)N[C@@H](CC(C)C)C(=O)N[C@@H](CC(C)C)C(=O)N[C@@H](C)C(=O)N[C@@H](CCC(N)=O)C(=O)NCC(=O)N1CCC[C@H]1C(=O)N[C@@H](CO)C(=O)N[C@@H](CO)C(=O)NCC(=O)N[C@@H](C)C(=O)N1CCC[C@H]1C(=O)N1CCC[C@H]1C(=O)N1CCC[C@H]1C(=O)N[C@@H](CO)C(N)=O)C(C)C` [Compound 35] (H-Y[Aib]EGTFTSDYSIYLDKK([AEEA-AEEA-C20 diacid])AQRAFVEWLLAQGPSSGAPPPS-NH2), the EC50 at human GIP R (setting [2]) was found to be 0.016 nM; at human GLP-1 R (setting [4]), 0.012 nM.
For the molecule `CC[C@H](C)[C@H](NC(=O)[C@H](CO)NC(=O)[C@H](Cc1ccc(O)cc1)NC(=O)[C@H](CC(=O)O)NC(=O)[C@H](CO)NC(=O)[C@@H](NC(=O)[C@H](Cc1ccccc1)NC(=O)[C@@H](NC(=O)CNC(=O)[C@H](CCC(=O)O)NC(=O)C(C)(C)NC(=O)[C@@H](N)Cc1ccc(O)cc1)[C@@H](C)O)[C@@H](C)O)C(=O)N[C@@H](Cc1ccc(O)cc1)C(=O)N[C@@H](CC(C)C)C(=O)N[C@@H](CC(=O)O)C(=O)N[C@@H](CCCCN)C(=O)N[C@@H](CCCCNC(=O)CC[C@H](NC(=O)CCCCCCCCCCCCCCCCCCC(=O)O)C(=O)O)C(=O)N[C@@H](C)C(=O)N[C@@H](CCC(N)=O)C(=O)N[C@@H](CCCNC(=N)N)C(=O)N[C@@H](C)C(=O)N[C@@H](Cc1ccccc1)C(=O)N[C@H](C(=O)N[C@@H](CCC(=O)O)C(=O)N[C@@H](Cc1c[nH]c2ccccc12)C(=O)N[C@@H](CC(C)C)C(=O)N[C@@H](CC(C)C)C(=O)N[C@@H](C)C(=O)N[C@@H](CCC(N)=O)C(=O)NCC(=O)N1CCC[C@H]1C(=O)N[C@@H](CO)C(=O)N[C@@H](CO)C(=O)NCC(=O)N[C@@H](C)C(=O)N1CCC[C@H]1C(=O)N1CCC[C@H]1C(=O)N1CCC[C@H]1C(=O)N[C@@H](CO)C(N)=O)C(C)C` [Compound 36] (H-Y[Aib]EGTFTSDYSIYLDKK([γGlu-C20 diacid])AQRAFVEWLLAQGPSSGAPPPS-NH2), the EC50 on human GIP R (setting [2]) turned out to be 0.01 nM; on human GLP-1 R (setting [4]), 0.015 nM.
